For orientation: ΔTm means the shift of the melting midpoint relative to a reference.

Calls of active or inactive are those of the source. The rule behind the calls is not given here. *1 amine or outer side, *2 acyl side, *3 side chain or, on linkers, in order; H or OH if unused. Where a SMILES comes first, the peptide text is derived from it. Bridges are numbered along the chain shown (N, C = ends). Roman numbers before positions name the chains, in order. The star is where a group is joined. Hexamethylenediamine = C(CCCN[*:2])CCN[*:1]; Cyclenylacetyl = O=C(CN1CCNCCNCCNCC1)*; X1 = O=c1[nH]cc(C*)c(=O)[nH]1

The source of these data is ChEMBL document CHEMBL1833935, “Metal-free cleavage efficiency toward DNA by a novel PNA analog-bridged macrocyclic polyamine” (Bioorg Med Chem Lett, 2011).

Holding throughout (type): nucleic-acid assay
Experiment [1] concerns Nucleic Acid. The experiment can be described thus: Induction of Escherichia coli pUC19 DNA cleavage assessed as conversion of supercoiled plasmid DNA to nicked circular DNA at 20 uM after 48 hrs by agarose gel electrophoresis.
For experiment [2], the system named is Nucleic Acid. Description: Induction of Escherichia coli pUC19 DNA cleavage assessed as conversion of supercoiled plasmid DNA to nicked circular DNA at 10 uM after 48 hrs by agarose gel electrophoresis.
Experiment [3] relates to Nucleic Acid. Description: Binding affinity to calf thymus DNA assessed as change in melting temperature at compound/DNA ratio of 1:5. The following applies: Bos taurus.
In experiment [4] the test system is Nucleic Acid. Description: Binding affinity to calf thymus DNA at compound/DNA ratio 2:5. Conditions: Bos taurus.
Experiment [5] deals with Nucleic Acid. The experiment can be described thus: Binding affinity to calf thymus DNA assessed as change in melting temperature at compound/DNA ratio of 2:5. The following applies: Bos taurus.
The test system of experiment [6] is Nucleic Acid. The experiment can be described thus: Induction of Escherichia coli pUC19 DNA cleavage assessed as conversion of supercoiled plasmid DNA to nicked circular DNA at 10 uM after 48 hrs by agarose gel electrophoresis in presence of 1 mM EDTA.
In experiment [7] the test system is Nucleic Acid. The experiment can be described thus: Induction of Escherichia coli pUC19 DNA cleavage assessed as conversion of supercoiled plasmid DNA to linear DNA at 10 uM after 48 hrs by agarose gel electrophoresis.
Experiment [8] deals with Nucleic Acid. Description: Induction of supercoiled Escherichia coli pUC19 DNA cleavage in HEPES buffer at pH 7.0 after 48 hrs by agarose gel electrophoresis in presence of 0.1 M DSMO.
The subject of experiment [9] is Nucleic Acid. Description: Induction of supercoiled Escherichia coli pUC19 DNA cleavage in HEPES buffer at pH 7.0 after 48 hrs by agarose gel electrophoresis in presence of 0.1 M NaN3.
Experiment [10] relates to Nucleic Acid. Description: Induction of supercoiled Escherichia coli pUC19 DNA cleavage in HEPES buffer at pH 7.0 after 48 hrs by agarose gel electrophoresis in presence of 0.1 M potassium iodide.
In experiment [11] the test system is Nucleic Acid. Description: Induction of supercoiled Escherichia coli pUC19 DNA cleavage in HEPES buffer at pH 7.0 after 48 hrs by agarose gel electrophoresis in presence of 0.1 M tert-butyl alcohol.
Experiment [12] deals with Nucleic Acid. The experiment can be described thus: Induction of [5'-32P]-end labeled single stranded 24 mer DNA cleavage assessed as formation of ladder of DNA fragment at 10 to 100 uM after 48 hrs at pH 7.0 and 37 degC by agarose gel electrophoresis-based phosphorimager analysis.
Experiment [13] deals with Nucleic Acid. Description: Induction of [5'-32P]-end labeled single stranded 26 mer DNA cleavage assessed as formation of ladder of DNA fragments in HEPES buffer at 10 to 100 uM after 48 hrs at pH 7.0 and 37 degC by agarose gel electrophoresis-based phosphorimager analysis.
Experiment [14] concerns Nucleic Acid. Description: Induction of [5'-32P]-end labeled single stranded 24 mer DNA cleavage assessed as formation of ladder of DNA fragment at 10 to 100 uM after 48 hrs at pH 7.0 and < = 25 degC by agarose gel electrophoresis-based phosphorimager analysis.
The subject of experiment [15] is Nucleic Acid. Description: Induction of [5'-32P]-end labeled single stranded 26 mer DNA cleavage assessed as formation of ladder of DNA fragment at 10 to 100 uM after 48 hrs at pH 7.0 and < = 25 degC by agarose gel electrophoresis-based phosphorimager analysis.

As for `C1CNCCNCCNCCN1`, in the experiment on Nucleic Acid [1], the outcome was inactive.

For `CC(C)(C)OC(=O)N1CCN(CC(=O)NCC(=O)N[C@@H](CSCc2c[nH]c(=O)[nH]c2=O)C(=O)NCC(=O)N[C@@H](CSCc2c[nH]c(=O)[nH]c2=O)C(=O)NCCCCCCNC(=O)[C@H](CSCc2c[nH]c(=O)[nH]c2=O)NC(=O)CNC(=O)[C@H](CSCc2c[nH]c(=O)[nH]c2=O)NC(=O)CNC(=O)CN2CCN(C(=O)OC(C)(C)C)CCN(C(=O)OC(C)(C)C)CCN(C(=O)OC(C)(C)C)CC2)CCN(C(=O)OC(C)(C)C)CCN(C(=O)OC(C)(C)C)CC1`, the outcome in the experiment on Nucleic Acid [2] was Active.

Take `COC(=O)[C@H](CSCc1c[nH]c(=O)[nH]c1=O)NC(=O)CNC(=O)[C@H](CSCc1c[nH]c(=O)[nH]c1=O)NC(=O)CNC(=O)CN1CCNCCNCCNCC1` (Cyclenylacetyl-GC(X1)GC(X1)-OMe): the thermal shift (ΔTm) in the experiment on Nucleic Acid [3] came to 1.1 °C. Moreover, the result with Nucleic Acid [4] and in the experiment on Nucleic Acid [2] was Active. The result with Nucleic Acid [1] was inactive.

With `O=C(CN1CCNCCNCCNCC1)NCC(=O)N[C@@H](CSCc1c[nH]c(=O)[nH]c1=O)C(=O)NCC(=O)N[C@@H](CSCc1c[nH]c(=O)[nH]c1=O)C(=O)NCCCCCCNC(=O)[C@H](CSCc1c[nH]c(=O)[nH]c1=O)NC(=O)CNC(=O)[C@H](CSCc1c[nH]c(=O)[nH]c1=O)NC(=O)CNC(=O)CN1CCNCCNCCNCC1` (I: Cyclenylacetyl-GC(X1)GC(X1) / II: Cyclenylacetyl-GC(X1)GC(X1); linker I:C-II:C via Hexamethylenediamine), the ΔTm stood at 5.9 °C in the experiment with Nucleic Acid [3] and 2.3 °C in the experiment on Nucleic Acid [5]. In addition, the result in the experiment with Nucleic Acid [2], in the experiment with Nucleic Acid [6], in the experiment with Nucleic Acid [7], in the experiment with Nucleic Acid [10], in the experiment on Nucleic Acid [11] and with Nucleic Acid [12] was Active. Further, in the experiment on Nucleic Acid [13], the outcome was Active. Besides, the result with Nucleic Acid [8], in the experiment with Nucleic Acid [9], in the experiment with Nucleic Acid [14] and with Nucleic Acid [15] was inactive.
